# Values of other authors as cited in patent US20040180086A1 (priority 2002, published 2004).
# Tested on: decarboxylation of peripheral levodopa
# Settings: carbidopa administered in combination with levodopa
smiles,measurement,value
"C[C@@](Cc1ccc(O)c(O)c1)(NN)C(=O)O [Carbidopa, S-α-hydrazino-3,4-dihydroxy-α-methylbenzenepropanoic acid monohydrate]",reduction of the amount of levodopa required to produce a given response,about 75%
